According to paper PMC6717892 (The EMBO Journal, 2019):

Biological target: T1, Bd1971 (Bdellovibrio bacteriovorus, UniProt Q6MLN6)
T1 construct: ITC: Bd1971ΔEAL (residues 1–150); crystal: full-length
Test: ITC (two-site model) and co-crystal structure; also activates phosphodiesterase activity (K half […])
Format: binding

T1 sequence (Q6MLN6 entry or part of it): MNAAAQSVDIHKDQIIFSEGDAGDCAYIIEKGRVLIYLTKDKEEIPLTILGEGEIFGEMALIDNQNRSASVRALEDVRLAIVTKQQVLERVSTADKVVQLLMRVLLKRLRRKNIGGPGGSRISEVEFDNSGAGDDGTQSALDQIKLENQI

Question: How did the Kd turn out when `Nc1nc2c(ncn2[C@@H]2O[C@@H]3COP(=O)(O)O[C@H]3[C@H]2O)c(=O)[nH]1` [cGMP] was run?
Answer: 769 nM
